Columns and labels:
Type in all cases: biochemical
DNA polymerase = assay: Solexa sequencing system, cluster amplification reaction on DNA-immobilized chip; settings: for num of CAGE tag / num of sequence read: trehalose 0.6 M in cluster amplification
Protocol: The Solexa sequencing system incorporates the steps of adsorbing, immobilizing, and amplifying a DNA template on a flat chip. An examination was conducted to see how the sequence analysis level would change due to the addition of trehalose in the template amplification reaction of the Solexa sequencing system.
In the process of the Solexa sequencing system, attention was focused on the cluster amplification reaction conducted on a DNA-immobilized chip. In this reaction, DNA immobilized on the chip was amplified with DNA polymerase to obtain identical fragments referred to as a cluster (Scheme 9). Amplification was conducted by adding trehalose to the reaction solution to a final concentration of 0.6 M, and a comparison was made with the results obtained when no trehalose was added (FIG. 10). The sample employed here was a 27 by DNA fragment that had been prepared by the CAGE method (obtained by cleaving just 27 by off of the 5′ end of cDNA).
In the same manner as in 10 above, trehalose was added to a final concentration of 0.3 M to a reaction solution and amplification was conducted in a Solexa sequencing system. The results were compared to those obtained when no trehalose was added. The samples employed, prepared by the CAGE method (obtained by cleaving just 27 by off the 5′ end of the cDNA), were different 27 by DNA fragments than those in 10 above.

[1] = test system: XhoI, PstI, HindIII, and EcoRI; assay: DNA cleavage reactions by various restriction enzymes on bead and plate surfaces; settings: 0.6 M trehalose vs none, all enzymes
Protocol: Differences in activity based on the type of enzyme in reactions under conditions where trehalose was present and absent and for various reactions surface shapes were examined. XhoI, PstI, HindIII, and EcoRI were employed as restriction enzymes to conduct reactions cleaving the same site on a DNA fragment with different enzymes (Scheme 8).
Cleavage reactions by various restriction enzymes were conducted on biotin-labeled DNA fragments I, II, and III (Seq. ID Nos. 4 to 6, Scheme 4) on bead surfaces. […] Paramagnetic streptavidin beads were washed with accessory 1× binding buffer, recovered with a magnetic stand to remove the supernatant, and suspended in the same buffer. […] The precipitate of DNA fragments obtained was dissolved in 1× TE (pH 7.5) and analyzed with Bioanalyzer DNA 1000 assay (Agilent Technologies).
Biotin-labeled DNA fragments II and III (Seq. ID Nos. 5 and 6, Scheme 4) were subjected to cleavage reactions by different restriction enzymes on horizontal streptavidin-coated plate surfaces. […] The precipitate of DNA fragments obtained was dissolved in 1× TE (pH 7.5) and analyzed with Bioanalyzer DNA 1000 assay (Agilent Technologies).

[2] = test system: enzyme reaction solution in a Genome Analyzer system; assay: Sequencing reaction in a Solexa sequencing system (Genome Analyzer), PhiX control; settings: trehalose 0.15 M, 0.3 M
Protocol: D(+)-trehalose was added to the enzyme reaction solution in a Genome Analyzer system (GAI) and the results were measured. The experiment was conducted with the three D(+)-trehalose final concentrations of 0.15 M, 0.3 M, and 0.51 M. The ratio of the reduction in the average value obtained by dividing the fluorescence intensity calculated for each cycle by the number of clusters was employed for comparison.
The D(+)-trehalose employed was D(+)-trehalose (90208 BioChemika, ≧99.5% (HPLC) (Fluka). A 36-cycle Illumina Sequencing Kit (FC-204-2036) was employed for sequencing with a Genome Analyzer (Illumina). The sample employed was PhiX control (CT-901-1001).
The IMX36 (42 mL) in box 2 of the SBS Kit contained in the 36-Cycle SBS Reagent Kit v2 (IIlumina catalog #FC-204-2036) was melted, after which D(+)-trehalose was added in the quantities indicated in Table 3.
Following the addition, the mixture was shielded from light and gently mixed with top to bottom inversion for 10 minutes at room temperature. Once the dissolution had been visually confirmed, the mixture was passed through a filter (with a filter pore system of 0.22 micrometers). Precisely the required 42 mL was collected from the mixed solution following filtration. Subsequently, the operations specified in the manufacturer's protocol were conducted.

[3] = 0.3 M trehalose in cluster amplification vs none

OC[C@H]1O[C@H](O[C@H]2O[C@H](CO)[C@@H](O)[C@H](O)[C@H]2O)[C@H](O)[C@@H](O)[C@@H]1O [trehalose, D(+)-trehalose]
fluorescence intensity of each base in the CAGE samples (DNA polymerase; [3]): higher level of fluorescence intensity
sequence level (DNA polymerase; [3]): increased
length of the sequence that was determined (DNA polymerase; 0.6 M trehalose vs none): increased
regions prepared by the CAGE method (CAGE tag) among DNA fragments analyzed (DNA polymerase; 0.6 M trehalose vs none): more regions prepared by the CAGE method (the CAGE tag) were contained
fluorescence intensity of each base (DNA polymerase; 0.6 M trehalose, data not shown): strongly displayed
num of CAGE tag (DNA polymerase; region s1): 196840
num of sequence read (DNA polymerase; region s1): 252820
num of CAGE tag (DNA polymerase; region s2): 421412
num of sequence read (DNA polymerase; region s2): 523387
num of CAGE tag (DNA polymerase; region s3): 540268
num of sequence read (DNA polymerase; region s3): 648786
num of CAGE tag (DNA polymerase; region s5): 317440
num of sequence read (DNA polymerase; region s5): 392534
num of CAGE tag (DNA polymerase; region s6): 627739
num of sequence read (DNA polymerase; region s6): 728614
num of CAGE tag (DNA polymerase; region s7): 798438
num of sequence read (DNA polymerase; region s7): 904101
num of CAGE tag (DNA polymerase; total of regions): 2902137
num of sequence read (DNA polymerase; total of regions): 3450242
enzymatic activity in cleavage reactions [1]: increased activity
difference in rate of reduction in fluorescence intensity, trehalose (+) vs trehalose (−) ([2]; 35th cycle, 0.51 M, PhiX control): ≥ 20%
PhiX control mapping rate ([2]; 0.51 M relative to trehalose (−)): overall significant difference
